Measurements taken from PMC3738572, “Improved Bone Morphogenetic Protein-2 Retention in an Injectable Collagen Matrix Using Bifunctional Peptides” (PLoS ONE, 2013).
Like-named read-outs stand apart in the source and are kept apart here. One block for each compound: values may come before it. Residues, ends and D or L forms follow the SMILES beside them. *: point of attachment. Biotin = O=C1N[C@H]2[C@H](CS[C@H]2CCCCC(=O)*)N1

Key:
rhBMP-2 = target: T1, rhBMP-2 (Homo sapiens, UniProt P12643); test: BMP-2 peptide binding assay (biotinylated peptide immobilized on streptavidin plate, rhBMP-2 titrated)
T1 construct: purchased R&D Systems 355-BM/CF
T1 sequence (P12643 283-396): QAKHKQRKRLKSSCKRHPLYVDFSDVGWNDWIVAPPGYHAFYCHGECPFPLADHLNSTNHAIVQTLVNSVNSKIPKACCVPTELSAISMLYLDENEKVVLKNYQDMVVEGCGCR
Description: To measure the ability of a BMP-binding peptide to capture its target growth factor out of buffer or a complex biological solution such as plasma, biotinylated peptides were immobilized onto a streptavidin-coated 96 well plate. Varying low nanomolar concentrations of BMP-2 were “spiked” into human plasma or Tris-buffered saline (0.5 M NaCl), 0.05% Tween-20 (TBST) and added to the peptide-containing plates. […] Adding p-NPP produced a colored reactant, which was quantified using a SpectroMax (Molecular Devices) plate reader at 405 nm.

rhBMP-6 = target: T2, rhBMP-6 (Homo sapiens, UniProt P22004); test: Peptide cross-reactivity to other growth factors; type: binding; details: Figure 5; growth factor titrated in TBST for 1 h on immobilized peptide; antibody and p-NPP detection; read-out: EC50, BMP-6
T2 sequence (P22004 375-513): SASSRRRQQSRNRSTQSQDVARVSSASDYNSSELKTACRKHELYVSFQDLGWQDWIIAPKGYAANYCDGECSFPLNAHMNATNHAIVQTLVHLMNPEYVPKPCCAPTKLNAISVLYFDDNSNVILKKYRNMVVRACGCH
Experimental: (§1) To measure the ability of a BMP-binding peptide to capture its target growth factor out of buffer or a complex biological solution such as plasma, biotinylated peptides were immobilized onto a streptavidin-coated 96 well plate. Varying low nanomolar concentrations of BMP-2 were “spiked” into human plasma or Tris-buffered saline (0.5 M NaCl), 0.05% Tween-20 (TBST) and added to the peptide-containing plates. After 1 hr incubation at room temperature (RT), plates were washed and incubated with an anti-BMP-2 antibody followed by a goat anti-mouse secondary antibody conjugated to alkaline phosphatase. Adding p-NPP produced a colored reactant, which was quantified using a SpectroMax (Molecular Devices) plate reader at 405 nm.
(§2) Figure 5 Peptide cross-reactivity to other growth factors. Peptides B-17 (A) and B-18 (B) were immobilized on a streptavidin-coated plate, and a range of concentrations of growth factors in the TGF-β superfamily were titrated onto the plate in TBST for 1 h. Growth factor binding was analyzed using antibody and p-NPP detection. […] Peptide B-17 also cross-reacted with rhBMP-3, rhBMP-5, and rhBMP-12. The peptides had lower affinities for all other growth factors tested. Data are presented as the absorbance read at 405 nm.

rhBMP-7 = target: T3, rhBMP-7 (Homo sapiens, UniProt P18075); test: Peptide cross-reactivity to other growth factors; type: binding; details: Figure 5; growth factor titrated in TBST for 1 h on immobilized peptide; antibody and p-NPP detection; read-out: EC50, BMP-7
T3 sequence (P18075 293-431): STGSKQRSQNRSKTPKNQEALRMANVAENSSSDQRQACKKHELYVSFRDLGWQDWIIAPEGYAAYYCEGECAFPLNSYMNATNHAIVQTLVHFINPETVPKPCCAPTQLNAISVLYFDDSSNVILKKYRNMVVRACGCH
Experimental: as §1, §2

[1] = target: T4, rhBMP-2 binding to injectable collagen gel (Homo sapiens, UniProt P12643); test: Injectable collagen gel binding assay; details: tested for the ability to bind BMP-2 to a collagen gel
T4 construct: purchased R&D Systems 355-BM/CF
T4 sequence (P12643 283-396): T1 sequence (P12643 283-396)
Experimental: The injectable collagen gel (0.1 mL) was aliquoted into a polypropylene plate. The plate was blocked with 150 µl of 1% BSA in TBS for 30 min. After spinning for 2 min, the supernatant was removed without disrupting the collagen gel. […] The wells were then washed, and an alkaline phosphatase labeled goat anti-mouse secondary antibody was added. After incubation and washing, binding was measured using the chromogenic reagent p-NPP, and absorbance was read at 405 nm.

ectopic bone formation = test: In vivo ectopic bone formation study; set-up: species or system rat
Experimental: Male Sprague Dawley rats (150–175 g) were obtained from […], Charles River Laboratories (Raleigh, NC) and acclimated prior to surgery. The surgery was performed under general anesthesia by weight-adapted intraperitoneal injection of Xylazine 2% (Medistar; 12 mg/kg body weight) and Ketamine hydrochloride (Ketaset; 100 mg/mL; 80 mg/kg body weight). The thorax and abdomen were shaved and scrubbed with Betadine and alcohol. Using aseptic technique, two 5 mm incisions were made at the midline so that two subcutaneous pouches were prepared by blunt dissection. […] Each rat received two injections and a total of 20 animals were used in the study. […] In those experiments, rats were implanted with collagen gel containing either 1 or 5 μg of BMP-2.
The sites containing the injected material were explanted at two weeks and fixed in 10% neutral buffered formalin. The samples were placed in Formical 2000 decalcifier (American Mastertech) for 24 hours followed by Cal-arrest neutralizing solution for one hour. The tissue samples were processed in a Thermo-Electron, Shandon Excelsior Automated Tissue Processor for 14 hours. The process includes additional fixation in 10% buffered neutral formalin, dehydration through an ethanol gradient, and clearing with xylene at 40°C. Tissue was then embedded on a Leica EF 1140 H tissue embedding center in paraffin blocks for sectioning. Paraffin blocks were sectioned at 5 microns on a Reichert-Jung RM2065 microtome using Accu-Edge High Profile disposable stainless steel microtome blades. Three serial sections at intervals of 30 microns were obtained and placed on Super-frost Plus slides for hematoxylin and eosin staining (H&E). Staining was performed using a Sakura DRS-601 automatic slide stainer with a regressive Harris hematoxylin and Eosin Y Alcoholic for histological and morphological examination.
Histological sections were scored based on three criteria: Bone Cross-Sectional Area, Bone Maturity and Cellular Activity. Each segment was scored based on a 0–4 point scale by two observers (blinded to the study) who evaluated the entire implant under 10× magnification.

[2] = Figure 5, growth factor titrated in TBST for 1 h on immobilized peptide, antibody and p-NPP detection, read-out: EC50, BMP-2 (cross-reactivity experiment)
[3] = read-out: EC50 of BMP-2 binding to immobilized peptide
[4] = group median, 2 μg rhBMP-2 with 50-fold molar excess of peptide in collagen gel, rat, 2 weeks, p<.0001 vs no peptide

Binding of BMP-2 by bifunctional peptide [1]: bound BMP-2
Compound: SWWGFWNGSAAPVWSR-GSSG-AGAWEAFSSLSGSRV-GSSGK(Biotin) [BC-1]
Median histology score: Bone area (ectopic bone formation; [4]): 2.1 (26–35% of Implant Shows Evidence of Bone Formation)
Median histology score: Bone maturity (ectopic bone formation; [4]): 3.0
Median histology score: Osteogenic cellular activity (ectopic bone formation; [4]): 2.6
Bone formation in preliminary experiments (ectopic bone formation; rats implanted with collagen gel containing 1 or 5 μg of BMP-2, with or without peptide, data not shown): bone formation at both doses

EC50 (rhBMP-2; [3]): 5.7 nM
Compound: CC(C)C[C@H](NC(=O)[C@@H]1CCCN1C(=O)[C@H](Cc1ccccc1)NC(=O)[C@H](CCCNC(=N)N)NC(=O)[C@H](CC(C)C)NC(=O)[C@@H]1CCCN1C(=O)[C@H](CCC(=O)O)NC(=O)[C@@H](N)Cc1ccccc1)C(=O)N[C@@H](CCCCN)C(=O)NCC(=O)N[C@H](C(=O)N1CCC[C@H]1C(=O)N[C@H](C(=O)O)C(C)C)C(C)C [Peptide B-9] (H-FEPLRFPLKGVPV-OH)

EC50 (rhBMP-2; [3]): 5.4 nM
Compound: CC(C)C[C@H](NC(=O)[C@H](CO)NC(=O)[C@H](CO)NC(=O)[C@H](Cc1ccccc1)NC(=O)[C@@H](NC(=O)[C@H](CCC(=O)O)NC(=O)[C@@H](N)Cc1c[nH]c2ccccc12)C(C)C)C(=O)N[C@@H](CCC(=O)O)C(=O)N[C@@H](CO)C(=O)NCC(=O)N[C@@H](CO)C(=O)N[C@H](C(=O)NCC(=O)N[C@@H](C)C(=O)NCC(=O)N[C@@H](C)C(=O)NCC(=O)O)C(C)C [Peptide B-8] (H-WEVFSSLESGSVGAGAG-OH)

EC50 (rhBMP-2; [3]): 327 nM
Compound: CC(C)C[C@H](NC(=O)[C@H](C)NC(=O)[C@H](CCC(=O)O)NC(=O)[C@H](Cc1ccccc1)NC(=O)[C@H](C)NC(=O)[C@H](CC(=O)O)NC(=O)[C@H](Cc1c[nH]c2ccccc12)NC(=O)[C@H](C)NC(=O)[C@H](CO)NC(=O)[C@H](C)NC(=O)[C@@H](NC(=O)[C@@H](NC(=O)CNC(=O)[C@H](Cc1c[nH]c2ccccc12)NC(=O)[C@@H](N)CC(=O)O)C(C)C)C(C)C)C(=O)N[C@@H](CC(=O)O)C(=O)N[C@@H](C)C(=O)O [Peptide B-11] (H-DWGVVASAWDAFEALDA-OH)

Binding of BMP-2 by bifunctional peptide [1]: bound BMP-2
Compound: SWWGFWNGSAAPVWSR-GSSG-AGALGFPLKGEVVEGWA-GSSGK(Biotin) [BC-2]

Continued, compound first:

Compound: CC(C)C[C@H](NC(=O)[C@H](C)NC(=O)CNC(=O)CN)C(=O)NCC(=O)N[C@@H](Cc1ccccc1)C(=O)N1CCC[C@H]1C(=O)N[C@@H](CC(C)C)C(=O)N[C@@H](CCCCN)C(=O)NCC(=O)N[C@@H](CCC(=O)O)C(=O)N[C@H](C(=O)N[C@H](C(=O)N[C@@H](CCC(=O)O)C(=O)NCC(=O)N[C@@H](Cc1c[nH]c2ccccc12)C(=O)N[C@@H](C)C(=O)NCC(=O)N[C@@H](CO)C(=O)N[C@@H](CO)C(=O)NCC(=O)N[C@@H](CCCCNC(=O)CCCC[C@@H]1SC[C@@H]2NC(=O)N[C@@H]21)C(=O)O)C(C)C)C(C)C [Peptide B-18] (H-GGALGFPLKGEVVEGWAGSSGK(Biotin)-OH)
EC50 (rhBMP-2; [2]): 2.8 nM
EC50 (rhBMP-2; [3]): 1.9 nM
EC50 (rhBMP-6): 6.5 nM
EC50 (rhBMP-7): 16.2 nM

Compound: CC(C)C[C@H](NC(=O)[C@H](CO)NC(=O)[C@H](CO)NC(=O)[C@H](Cc1ccccc1)NC(=O)[C@H](C)NC(=O)[C@H](CO)NC(=O)[C@H](Cc1ccccc1)NC(=O)[C@H](CO)NC(=O)CNC(=O)CNC(=O)[C@@H](N)CC(=O)O)C(=O)N[C@H](C(=O)N[C@@H](Cc1c[nH]c2ccccc12)C(=O)N[C@@H](C)C(=O)N[C@@H](C)C(=O)N[C@@H](CC(=O)O)C(=O)N[C@@H](CO)C(=O)O)C(C)C [Peptide B-10] (H-DGGSFSAFSSLVWAADS-OH)
EC50 (rhBMP-2; [3]): 26 nM

Compound: CC(C)C[C@H](NC(=O)[C@H](C)NC(=O)[C@H](CO)NC(=O)[C@H](Cc1ccccc1)NC(=O)[C@H](CO)NC(=O)[C@@H](NC(=O)[C@H](Cc1c[nH]c2ccccc12)NC(=O)[C@H](C)NC(=O)CNC(=O)[C@H](C)NC(=O)[C@H](C)NC(=O)[C@H](C)NC(=O)[C@H](CCC(=O)O)NC(=O)CNC(=O)CN)C(C)C)C(=O)N[C@@H](CCC(=O)O)C(=O)N[C@@H](CO)C(=O)O [Peptide B-7] (H-GGEAAAGAWVSFSALES-OH)
EC50 (rhBMP-2; [3]): 29 nM

Compound: CC(C)C[C@H](NC(=O)[C@H](C)NC(=O)[C@H](CO)NC(=O)[C@H](Cc1ccccc1)NC(=O)[C@H](CO)NC(=O)[C@H](CO)NC(=O)[C@H](Cc1ccccc1)NC(=O)[C@H](C)NC(=O)[C@H](CO)NC(=O)[C@H](CC(=O)O)NC(=O)[C@H](CO)NC(=O)[C@@H](N)CO)C(=O)N[C@@H](CCC(=O)O)C(=O)NCC(=O)N[C@@H](CO)C(=O)N[C@H](C(=O)N[C@H](C(=O)O)C(C)C)C(C)C [Peptide B-6] (H-SSDSAFSSFSALEGSVV-OH)
EC50 (rhBMP-2): 1.4 nM

Compound: CC(C)C[C@H](NC(=O)[C@H](CO)NC(=O)[C@H](CO)NC(=O)[C@H](Cc1ccccc1)NC(=O)[C@H](C)NC(=O)[C@H](CCC(=O)O)NC(=O)[C@H](Cc1c[nH]c2ccccc12)NC(=O)[C@H](C)NC(=O)CNC(=O)CNC(=O)CN)C(=O)N[C@@H](CO)C(=O)NCC(=O)N[C@@H](CO)C(=O)N[C@@H](CCCNC(=N)N)C(=O)N[C@H](C(=O)NCC(=O)N[C@@H](CO)C(=O)N[C@@H](CO)C(=O)NCC(=O)N[C@@H](CCCCNC(=O)CCCC[C@@H]1SC[C@@H]2NC(=O)N[C@@H]21)C(=O)O)C(C)C [Peptide B-17] (H-GGGAWEAFSSLSGSRVGSSGK(Biotin)-OH)
EC50 (rhBMP-2; [2]): 1.4 nM
EC50 (rhBMP-6): 1.3 nM
EC50 (rhBMP-7): 17 nM

Compound: CC(C)C[C@H](NC(=O)[C@H](CC(=O)O)NC(=O)[C@@H](NC(=O)[C@@H](N)CO)C(C)C)C(=O)N[C@@H](Cc1ccc(O)cc1)C(=O)N[C@@H](Cc1ccccc1)C(=O)N1CCC[C@H]1C(=O)N[C@@H](CC(C)C)C(=O)N[C@@H](CCCCN)C(=O)NCC(=O)N[C@@H](CC(=O)O)C(=O)N[C@H](C(=O)N[C@H](C(=O)O)C(C)C)C(C)C [Peptide B-12] (H-SVDLYFPLKGDVV-OH)
EC50 (rhBMP-2; [3]): 12 nM
